According to US11992530B2 (priority 2018, dated 2024):
Several values for one entry are separate records, joined by “and”; a condition that tells them apart may be missing. Equal values may be shown once. Read-outs that look alike come from different tables or passages of the source.

What was measured:
[1] = Dynamic vapor sorption (DVS) isotherm; settings: for DVS weight loss upon desorption: hysteresis observed
[2] = for Cisplatin Concentration: 24° C.
Method: In one aspect, a mixed mode C-18 chromatography column is used in the assay, which has both hydrophobic interaction and ion exchange capabilities. In another aspect, the HPLC run time for the assay is about 2 min, about 5 min, about 7.5 min, about 10 min or about 15 min. In one aspect, the HPLC run time is about 5 min or about 10 min.
In another aspect, the concentration is analyzed using HPLC with a mixed mode C-18 chromatography column at a column temperature of 35° C., flow rate of 400 μL/min, and UV detection at 220 nm. In one aspect, the HPLC method comprises a step gradient of 100% Buffer A (0.5 mM ammonium formate in 9:1 water:acetonitrile, pH 4) for 3 min; then 90% Buffer A and 10% Buffer B (200 mM ammonium formate in 7:3 water:acetonitrile, pH 4) for 3.5 min; then 100% Buffer A for 4.5 min.
The method uses a Waters Acquity H-Class HPLC system with an Imtakt Scherzo SW-C18 mixed mode column. The HPLC method conditions are outlined in Table 7. […] This range covers greater than two orders of magnitude at dose-relevant concentrations.
Each sample was transferred to an HPLC vial and placed in an autosampler chamber held at 24° C. Samples were injected onto the HPLC system approximately every 30 minutes to obtain 4 time-points for each sample. A gradient was run and the retention time and peak area were obtained.

[3] = system: cisplatin-induced ototoxicity
Excerpt: Reference is made to International Patent Application Publication No. WO 2019/108592, which is a continuation of U.S. patent application Ser. No. 15/826,243, filed on Nov. 29, 2017, both of which are incorporated by reference herein in their entirety.

[4] = Clinical pharmacokinetics (plasma levels, distribution, excretion)
Excerpt: The compound is available as anhydrous and crystalline forms; the pentahydrate crystalline form is the most common hydrate form. […] Proposed mechanisms of action involve its […], which allow it to act as a free radical scavenger and/or by covalent binding and inactivating the platinum compound.
(§1) Thiosulfate is an endogenous compound ubiquitously present in all cells and organs.

[5] = animals
Excerpt: as §1

human plasma proteins = system: human plasma proteins
Excerpt: as §1

[6] = cited from earlier work
[7] = system: small cell lung cancer cell cultures; settings: cited from earlier work
[8] = thiosulfate:cisplatin 5:1 (n = 2)
[9] = thiosulfate:cisplatin 6:1 (n = 2)
[10] = thiosulfate:cisplatin 10:1 (n = 2)
[11] = preliminary clinical studies, dose equivalent to 5.1 g/m^2 sodium thiosulfate for injection

O=S([O-])([O-])=S.[Na+].[Na+] [anhydrous sodium thiosulfate, Sodium thiosulfate anhydrous]
DVS weight change upon equilibration to 0% relative humidity [1]: minimal weight change
DVS weight loss upon desorption [1]: 51%

O.O.O.O.O.O=S([O-])([O-])=S.[Na+].[Na+] [sodium thiosulfate pentahydrate]
DVS weight gain upon sorption [1]: 81%
DVS weight loss upon drying [1]: 27%
DVS weight loss upon desorption [1]: 51%

O=S([O-])([O-])=S.[Na+].[Na+] [STS, sodium thiosulfate]
Half-life of cisplatin (time to reach 333/2 μM) [2, 8]: 3.3 h
Slope, linear regression of cisplatin conc. vs. time [2, 8]: −0.80 Cisplatin Area/min
Cisplatin Concentration ([2]; thiosulfate:cisplatin 5:1, 4 min): 323.7 µM
Cisplatin Concentration ([2]; thiosulfate:cisplatin 5:1, 37 min): 294.2 µM and 294.0 µM
Cisplatin Concentration ([2]; thiosulfate:cisplatin 5:1, 70 min): 266.8 µM and 268.0 µM
Cisplatin Concentration ([2]; thiosulfate:cisplatin 5:1, 103 min): 243.7 µM and 245.3 µM
Half-life of cisplatin (time to reach 333/2 μM) [2, 9]: 3.07 h
Slope, linear regression of cisplatin conc. vs. time [2, 9]: −0.87 Cisplatin Area/min
Cisplatin Concentration ([2]; thiosulfate:cisplatin 6:1, 5 min): 325.4 µM and 324.5 µM
Cisplatin Concentration ([2]; thiosulfate:cisplatin 6:1, 38 min): 286.4 µM and 293.2 µM
Cisplatin Concentration ([2]; thiosulfate:cisplatin 6:1, 71 min): 259.8 µM and 266.2 µM
Cisplatin Concentration ([2]; thiosulfate:cisplatin 6:1, 104 min): 235.6 µM and 240.5 µM
Half-life of cisplatin (time to reach 333/2 μM) [2, 10]: 2.27 h
Slope, linear regression of cisplatin conc. vs. time [2, 10]: −1.13 Cisplatin Area/min
Cisplatin Concentration ([2]; thiosulfate:cisplatin 10:1, 4 min): 319.5 µM
Cisplatin Concentration ([2]; thiosulfate:cisplatin 10:1, 5 min): 320.3 µM
Cisplatin Concentration ([2]; thiosulfate:cisplatin 10:1, 37 min): 269.4 µM
Cisplatin Concentration ([2]; thiosulfate:cisplatin 10:1, 38 min): 278.5 µM
Cisplatin Concentration ([2]; thiosulfate:cisplatin 10:1, 70 min): 235.2 µM
Cisplatin Concentration ([2]; thiosulfate:cisplatin 10:1, 71 min): 239.6 µM
Cisplatin Concentration ([2]; thiosulfate:cisplatin 10:1, 103 min): 205.6 µM
Cisplatin Concentration ([2]; thiosulfate:cisplatin 10:1, 104 min): 209.3 µM
Prevention of ototoxicity ([3]; doses equivalent to 6.4 to 12.8 g/m^2 sodium thiosulfate for injection): prevented ototoxicity
Ototoxicity in pediatric patients treated with platinum based chemotherapeutics ([3]; pediatric patients): reduces ototoxicity
Hearing protection [3, 11]: did not show hearing protection
Survival ([3]; treatment 6 hours after completion of each CIS infusion): did not affect survival
Efficacy of cisplatin based chemotherapeutics when STS was administered ([3]; two phase III clinical trials, pediatric patients): not affected
Plasma accumulation ([4]; administered on 2 consecutive days): no plasma accumulation
Volume of distribution ([4]; adults): 0.23 L/kg
Maximum STS plasma levels ([4]; children and adults, 15-minute infusion, dose equivalent to 12.8 g/m^2 sodium thiosulfate for injection): approximately 13.3 mM
Distribution across the blood brain barrier or placenta ([4]; human, in vivo): absent or limited
Absorption after oral administration ([4]; oral): poorly absorbed
Maximum plasma levels [4, 11]: 3.9 mM
Distribution to the cochlea [5]: distribute to the cochlea
Binding to human plasma proteins (human plasma proteins): does not bind
Serum sodium levels (doses equivalent to 12.8 g/m^2 sodium thiosulfate for injection): small, transient increase
Renal or other toxicities (pediatric patients treated with a platinum based chemotherapeutic): not exacerbate renal or other toxicities
Excreted in the urine unmodified ([6]; following IV administration): Up to 95%
Biological half-life ([6]; human, in vivo): 0.65 hours
Biological half-life, range dependent on dose ([6]; human, in vivo): 16.5-182 minutes
Cytotoxicity of etoposide after immediate or delayed addition of STS ([7]; incubation for 72 hours): no reduction of cytotoxicity
Anti-tumor activity of doxorubicin, carmustine (BCNU), paclitaxel, or methotrexate with STS ([7]; similar studies): no reduction of anti-tumor activity

O=S(O)(O)=S [thiosulfate]
Endogenous serum thiosulfate levels ([4]; adult volunteers): 5.5 ± 1.8 µM
